A short description of data set [1]: Drug recovery in the Sorin ECMO circuit. The conditions noted are these: 24 h; phosphorylcholine-coated circuit, whole human blood, 37°C; HPLC-MS/MS; % of 2 min concentration; single measurement. Here is the method:
Four healthy volunteers were recruited. After obtaining informed consent, 402 ml of blood was collected through the cubitus vein using disposable blood bags (Fresenius Kabi), of which 2 ml was used for a routine blood examination. Sorin (LivaNova, London, United Kingdom) and Maquet (Getinge AB, Hirrlingen, Germany) ECMO circuits were used to establish self-circulation and were primed with fresh whole human blood. After the circulation stabilized, the drugs were added to the circuit. Blood samples were collected at different time points, and the drug concentration was measured to observe the recovery rate of different drugs in the ECMO cycle.
Each circuit consisted of a membrane oxygenator, centrifugal pump, cannula, heat exchanger, and PVC tubing. The materials of each ECMO component are shown in Supplementary Material 1. A reservoir bag containing 30 mL of blood was used to construct a bypass to maintain the pressure of the circuit (Figure 1). Eight hundred milliliters of fresh whole human blood (<1 h old) was used to prime the circuit. Heparin (5,000 U) was added to the circuits to prevent clotting.
The circuit flow rate was controlled at 4–5 L/min. Circuit temperature was maintained at 37°C.
These bolus doses were selected to produce concentrations similar to clinical concentrations. The order of administration was determined according to the half-life from long to short. According to the drug instructions, none of the drugs interact with each other ([12]). Two milliliters of physiological saline solution (0.9%) was used to flush the tube after injection of all drugs to avoid drug loss at the entrance of administration.
In this study, two experiments were carried out and 26 blood samples were analyzed. The first experiment was conducted with the Maquet ECMO circuit. […] The blood samples collected at each time point were measured twice due to the uncertainty of the initial experiment.

The conditions of data set [2]: ref DrugBank [12]; cited from earlier work.
The conditions of data set [3]: ref DrugBank [12]; cited from earlier work. This is another data set of the same source.
The conditions of data set [4]: ex vivo study by Watt et al., cited from earlier work.
The conditions of data set [5]: infants on ECMO versus infants not on ECMO; cited from earlier work.
Data set [6] can be described thus: Control group: spontaneous drug degradation in whole blood at 37°C. To be noted: control of Sorin experiment; whole human blood, water bath 37°C 24 h, no circuit; HPLC-MS/MS; % of 2 min concentration; single measurement.
Procedure: Whole blood was collected in polypropylene tubes containing ethylenediaminetetraacetic acid (EDTA) from a post-oxygenator site and chilled to 4°C until further processing. […] Ten milliliters of blood were collected 2 min after the injection of all the drugs, of which 8 ml was divided into 4 tubes and stored at 4°C after 3, 6, 12, and 24 h of immersion in a water bath at 37°C separately as a control group. The blood drug concentration of the remaining 2 ml sample was regarded as the baseline value of all sampling points.
All blood samples were stored at 4°C and centrifuged (10 min at 3,000 × g) within 8 h after sampling, and the plasma was separated and stored in clean polypropylene cryogenic vials at −80°C until analysis. The blood concentration of various drugs was measured through high-performance liquid chromatography-tandem mass spectrometry (HPLC-MS/MS). The recoveries of each drug after different times of circulation were calculated based on the blood concentration at 2 min.

Structures are written as SMILES. Marks after values point to notes of the source that are not given here. Starred links: 1 amine or outer side, 2 acyl side, 3 side chain; linkers in the order of their positions; H or OH if unused. Positions of bridges follow the written chain, without caps; N, C: chain ends. Non-standard residues stand in square brackets, D forms with d. Residues, ends and D or L forms follow the SMILES beside them. *: point of attachment. hTyr(3S-OH,4S-OH,3'-OSO3H) = N[C@H](C(=O)O)[C@H](O)[C@@H](O)c1ccc(O)c(OS(=O)(=O)O)c1; Orn(4R-OH,5R-OH) = O=C([C@H](C[C@@H](O)[C@@H](O)N[*:3])N[*:1])[*:2]; Pro(3S-OH,4S-Me) = C[C@H]1CN[C@H](C(=O)O)[C@H]1O; X2 = CCCCCOc1ccc(-c2cc(-c3ccc(C(=O)*)cc3)no2)cc1; Gln(3R-OH) = NC(=O)C[C@@H](O)[C@H](N)C(=O)O; Hyp = O=C(O)[C@@H]1C[C@@H](O)CN1

For the molecule `CCCCCOc1ccc(-c2cc(-c3ccc(C(=O)N[C@H]4C[C@@H](O)[C@@H](O)NC(=O)[C@@H]5[C@@H](O)[C@@H](C)CN5C(=O)[C@H]([C@H](O)CC(N)=O)NC(=O)[C@H]([C@H](O)[C@@H](O)c5ccc(O)c(OS(=O)(=O)O)c5)NC(=O)[C@@H]5C[C@@H](O)CN5C(=O)[C@H]([C@@H](C)O)NC4=O)cc3)no2)cc1` [Micafungin, micafungin] (X2-[Orn(4R-OH,5R-OH)]T[Hyp][hTyr(3S-OH,4S-OH,3'-OSO3H)][Gln(3R-OH)][Pro(3S-OH,4S-Me)]; lactam 1-C), the “Drug recovery, Sorin circuit, 24 h” value in data set [1] is 66.85 (-)^* %. The “Lipophilicity (log P)” value in data set [2] is given as −1.5. In data set [3], the “Protein binding rate (%)” value is reported as above 99%. For the same molecule, the “Average drug recovery in the control group at 24 h” value in data set [4] (control group) is 57%. Also, the “Average drug recovery in the ECMO loop at 24 h” value in data set [4] was 26–43%. For the same molecule, the “Vd in infants on ECMO, higher than in infants not on ECMO” value in data set [5] was 20–90%. For the same molecule, the “Drug recovery, Control-24 h (Sorin experiment)” value in data set [6] was 98.82 (-)^* %.

Values taken from article PMC8671752, “Effects of ex vivo Extracorporeal Membrane Oxygenation Circuits on Sequestration of Antimicrobial Agents” (Frontiers in Medicine, 2021).
